Source: patent US20240374691A1, “GLP-1R AGONISTS FOR USE IN A TREATMENT OF NEUROLOGIAL IMPAIRMENT ASSOCIATED WITH VIRAL INFECTION” (Neuraly, Inc., priority 2021, published 2024)
Read-outs that look alike come from different tables or passages of the source.

Assays:
[1] = in vivo; cited from earlier work
primary microglia = test: Pro-inflammatory cytokine production by primary microglia in vitro (ELISA); assay type: cell-based; conditions: NLY01 vs PBS
Method: Production of pro-inflammatory cytokines is a marker for microglial activation. Chronic microglial activation is pathogenic. […] Cytokine levels were determined using ELISA. Bars indicate mean±s.e.m. (n=3).

activated microglia = test: Microglial activation in vivo after intrastriatal α-synuclein PFF injection; parameters: species or system C57BL6 mice; conditions: 3 mg/kg s.c. twice a week for 5 months, PFF-injected mice, FIGS. 2A-2B
Text: Mice were perfused and brain tissues collected to allow analysis of activated microglia and cytokine levels following treatment.

[2] = system: Tg models of Alzheimer's Disease; test: Tg models of Alzheimer's Disease (AD); assay type: in vivo
[3] = in vivo
[4] = in vivo; remark: listed apart in the source

| Substance | half-life [1] | cytokine production by microglia (primary microglia; absence of activation) | pro-inflammatory cytokine levels (C1q, IL1α, TNF-α, IL1β) (primary microglia; activated microglia, FIGS. 1A-1D) | Iba-1+ activated microglia in the brain (Iba-1 intensity, microglia density) (activated microglia) | amyloid aggregation and tau formation [2] | memory impairment [2] | microglia activation and population of reactive astrocytes in the AD brain [2] | half-life [3] | blood-brain barrier traversal [4] |
| --- | --- | --- | --- | --- | --- | --- | --- | --- | --- |
| Albiglutide: dipeptidyl peptidase-4-resistant glucagon-like peptide-1 dimer fused to human albumin | four to seven |  |  |  |  |  |  |  |  |
| NLY01: long-acting PEGylated form of exenatide; PEG 50,000 Da site-specifically conjugated to exenatide peptide |  | not significantly affected | substantially reduced | reduced | reduced | ameliorated | significantly inhibited | 88 h | traverses the blood-brain barrier |
